Several values for one entry are separate records, joined by “and”; a condition that tells them apart may be missing. Equal entries are not always repeated.
Molecular target: T1, PR (Homo sapiens, UniProt P06401)
T1 construct: alkaline phosphatase activity in T47D cells; endogenous in cells; host or cells: T47D cells
T1 sequence (P06401 1-933): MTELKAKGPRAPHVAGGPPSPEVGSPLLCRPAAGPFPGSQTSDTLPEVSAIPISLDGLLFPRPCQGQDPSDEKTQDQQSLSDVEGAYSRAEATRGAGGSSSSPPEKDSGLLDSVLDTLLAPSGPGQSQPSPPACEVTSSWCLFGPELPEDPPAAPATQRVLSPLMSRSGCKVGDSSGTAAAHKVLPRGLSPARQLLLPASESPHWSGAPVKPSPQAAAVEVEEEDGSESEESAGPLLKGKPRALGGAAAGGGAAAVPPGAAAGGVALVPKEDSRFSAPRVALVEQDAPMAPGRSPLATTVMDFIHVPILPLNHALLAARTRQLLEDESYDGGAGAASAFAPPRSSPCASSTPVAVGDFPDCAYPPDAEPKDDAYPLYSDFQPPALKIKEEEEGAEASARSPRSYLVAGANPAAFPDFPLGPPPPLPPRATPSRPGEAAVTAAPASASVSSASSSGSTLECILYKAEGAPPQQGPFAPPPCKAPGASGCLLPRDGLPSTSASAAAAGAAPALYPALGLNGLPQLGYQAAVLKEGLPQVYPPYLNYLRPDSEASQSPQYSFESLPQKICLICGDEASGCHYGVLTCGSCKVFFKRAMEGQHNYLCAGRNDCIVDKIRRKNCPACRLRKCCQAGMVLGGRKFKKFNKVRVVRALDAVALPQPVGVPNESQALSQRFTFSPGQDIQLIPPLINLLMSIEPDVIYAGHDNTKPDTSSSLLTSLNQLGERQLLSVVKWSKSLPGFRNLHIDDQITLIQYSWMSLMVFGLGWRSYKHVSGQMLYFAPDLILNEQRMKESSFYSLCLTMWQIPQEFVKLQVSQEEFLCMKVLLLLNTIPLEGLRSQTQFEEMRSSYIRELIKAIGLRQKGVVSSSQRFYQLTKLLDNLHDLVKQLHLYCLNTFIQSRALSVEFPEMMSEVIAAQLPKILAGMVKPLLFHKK
Experiment: T47D cell alkaline phosphatase assay
Type: cell-based
Conditions: T47D cells, agonist mode; read-out: Alk. Phos. EC50
Procedure: (a) Purpose: To identify progestins or antiprogestins by determining a compound's effect on alkaline phosphatase activity in T47D cells. […] Cell Culture and Treatment • Frozen T47D cells were thawed in a 37° C. water bath and diluted to 280,000 cells/ml in culture medium. To each well in a 96-well plate (Falcon, Becton Dickinson Labware), 180 ? L of diluted cell suspension was added. Twenty ? L of reference or test compounds diluted in the culture medium was then added to each well. […] The cells were incubated at 37° C. in a 5% CO2humidified atmosphere for 24 hours. • Note: For high throughput screening, one concentration of each compound was tested at 0.3 mg/ml. […] Alkaline Phosphatase Enzyme Assay • At the end of treatment, the medium was removed from the plate. Fifty ? L of assay buffer I was added to each well. The plates were shaken in a titer plate shaker for 15 minutes. Then 150 ? L of assay buffer II was added to each well. […] Square root-transformed data were used for analysis of variance and nonlinear dose response curve fitting for both agonist and antagonist modes. Huber weighting was used to downweight the effects of outliers. EC50 or IC50 values were calculated from the retransformed values. JMP software (SAS Institute, Inc.) was used for both one-way analysis of variance and non-linear dose response analyses in both single dose and dose response studies.

EC50 [nM] | Compound
10 | Cn1c(C#N)ccc1-c1ccc2c(c1)C(C)(C)CC2=O [Example 3, 5-(3,3-dimethyl-1-oxo-2,3-dihydro-1H-inden-5-yl)-1-methyl-1H-pyrrole-2-carbonitrile]

Same assay, conditions: read-out: Alk. Phos. IC50

Compound | IC50 [nM]
Cc1ccc(-c2ccc3c(c2)C(C)(C)CC3=O)cc1 [Example 26, 3,3-dimethyl-5-(4-methylphenyl)indan-1-one] | 877
CC1(C)CC(=O)c2ccc(-c3ccccc3Cl)cc21 [Example 32, 5-(2-chlorophenyl)-3,3-dimethylindan-1-one] | 737
CC1(C)CC(=O)c2ccc(-c3cc(Cl)ccc3Cl)cc21 [Example 35, 5-(2,5-dichlorophenyl)-3,3-dimethylindan-1-one] | 632
CC1(C)CC(=O)c2ccc(-c3ccc(Cl)cc3Cl)cc21 [Example 36, 5-(2,4-dichlorophenyl)-3,3-dimethylindan-1-one] | 349

The next lines start with the values.

IC50 [nM] | Compound
300 | CC1(C)CC(=O)c2ccc(-c3ccccc3)cc21 [Example 37, 3,3-dimethyl-5-phenylindan-1-one]
300 | Cn1c(C#N)ccc1-c1ccc(C(=O)c2ccccc2)cc1 [Example 11, 5-(4-benzoylphenyl)-1-methyl-1H-pyrrole-2-carbonitrile]
266 | Cn1c(C#N)ccc1-c1ccc(C(=O)c2cccs2)cc1 [Example 10, 1-methyl-5-[4-(thien-2-ylcarbonyl)phenyl]-1H-pyrrole-2-carbonitrile]
225 | Cc1cccc(-c2ccc3c(c2)C(C)(C)CC3=O)c1 [Example 29, 3,3-dimethyl-5-(3-methylphenyl)indan-1-one]
200 | CC1(C)CC(=O)c2ccc(-c3ccc(Cl)cc3)cc21 [Example 21, 5-(4-chlorophenyl)-3,3-dimethylindan-1-one]
115 | CCC(=O)c1ccc(-c2ccc(C#N)n2C)cc1 [Example 9, 1-methyl-5-(4-propionylphenyl)-1H-pyrrole-2-carbonitrile]
100 | CC1(C)CC(=O)c2ccc(-c3ccc(F)c(Cl)c3)cc21 [Example 38, 5-(3-chloro-4-fluorophenyl)-3,3-dimethylindan-1-one]
66.3 | CC1(C)CC(=O)c2ccc(-c3cccc(Cl)c3)cc21 [Example 28, 5-(3-chlorophenyl)-3,3-dimethylindan-1-one]
27.5 | Cn1c(C#N)ccc1-c1ccc2c(c1)CCCC2=O [Example 13, 1-methyl-5-(5-oxo-5,6,7,8-tetrahydronaphthalen-2-yl)-1H-pyrrole-2-carbonitrile]

Tested on: rat uterine decidualization
Experiment: Rat decidualization assay
Type: in vivo
Conditions: ovariectomized Sprague-Dawley rats, s.c., average of dose-response curves
Procedure: The animals were treated once daily for seven days. […] In all studies, a control group receiving vehicle was included. […] The contralateral horn was not scratched and served as an unstimulated control. Approximately 24 hoursfollowing the final treatment, rats were sacrificed by CO2 asphyxiation and body weight measured. Uteri were removed and trimmed of fat. Decidualized (D-horn) and control (C-horn) uterine horns were weighed separately.
Body weight: Mean total animal body weight (default-kg)
D-horn: Wet weight of decidualized uterine horn (default-kg)
C-horn: Wet weight of control uterine horn (default-kg)
Decidual response: [(D−C)/C]×100%

Estimated average EC50 for uterine wet weight | Compound
0.10 mg/kg, s.c. | C#C[C@]1(O)CC[C@H]2[C@@H]3CCC4=CC(=O)CC[C@@H]4[C@H]3C(=C)C[C@@]21CC [3-Ketodesogestrel]
0.10 mg/kg, s.c. | C#C[C@]1(O)CC[C@H]2[C@@H]3CCC4=CC(=O)CC[C@@H]4[C@H]3CC[C@@]21CC [Levonorgestrel]

Same assay, conditions: ovariectomized rats, p.o., with EC50 dose of progesterone (5.6 mg/kg), individual studies

Estimated IC50 for uterine weight | Compound
0.21 mg/kg, p.o. and 0.14 mg/kg, p.o. | CC#C[C@]1(O)CC[C@H]2[C@@H]3CCC4=CC(=O)CCC4=C3[C@@H](c3ccc(N(C)C)cc3)C[C@@]21C [RU486]
